Experimental data published in patent US20180353457A1, “ABIETANE DITERPENOID 7-ACETOXYROYLEANONES FOR USE IN CANCER TREATMENT” (University of South Carolina, priority 2017, published 2018).

Experiments:
[1] = tested on: A498 (renal cancer) cells; assay: NCI-60 five dose screen, A498; conditions: read-out: LC50; A498, Renal
[2] = tested on: SF-295 (CNS cancer) cells; assay: NCI-60 five dose screen, SF-295; conditions: read-out: LC50; SF-295, CNS
[3] = tested on: MDA-MB-435 (melanoma) cells; assay: NCI-60 five dose screen, MDA-MB-435; conditions: read-out: LC50; MDA-MB-435, Melanoma
[4] = tested on: MDA-MB-468 (breast cancer) cells; assay: NCI-60 five dose screen, MDA-MB-468; conditions: read-out: LC50; MDA-MB-468, Breast
[5] = tested on: HOP-92 (non-small cell lung cancer) cells; assay: NCI-60 five dose screen, HOP-92; conditions: read-out: LC50; HOP-92, Non-small Cell Lung Cancer
leukemia cell lines [6] = assay: NCI-60 one dose screen, leukemia cell lines; format: cell-based; conditions: 10 μM, each leukemia cell line
Procedure: (§1) One dose and five dose cytotoxicity screening was performed by the NCI-60 screening program of the National Institutes of Health (NIH), which is known in the art and available from the NIH. The NCI-60 panel is a collection of cancer cell lines, from various diverse tumors, which was developed in the 1980s by the National Cancer Institute to aid screening efforts for cytotoxic or cytostatic compounds.
(§2) In these screens, 60 cell lines, were utilized to determine the cytotoxic effect of small molecules, natural products, and other drug candidates. […]
(§3) The five dose screen was performed by creating four 10-fold dilutions of the highest concentration of the diluted 7-acetoxyroyleanone made in the same manner as the one dose screen. […] The bound stain was then dissolved in 10 mM trizma base and the absorbance was read using an automated plate reader at 515 nm. […]

[7] = tested on: RXF 393 (renal cancer) cells; assay: NCI-60 five dose screen, RXF 393; conditions: read-out: LC50; RXF 393, Renal
[8] = tested on: OVCAR-3 (ovarian cancer) cells; assay: NCI-60 five dose screen, OVCAR-3; conditions: read-out: LC50; OVCAR-3, Ovarian
leukemia cell lines [9] = conditions: read-out: LC50; each leukemia cell line; not reached at highest concentration tested
[10] = tested on: NCI-60 panel of cancer cell lines; assay: NCI-60 one dose screen, whole panel; format: cell-based; conditions: 10 μM, 48 hours
Procedure: as §1, §2, §3

[11] = tested on: COLO 205 (colon cancer) cells; assay: NCI-60 five dose screen, COLO 205; conditions: read-out: LC50; COLO 205, Colon

CC(=O)O[C@@H]1C[C@H]2C(C)(C)CCC[C@]2(C)C2=C1C(=O)C(C(C)C)=C(O)C2=O [7-acetoxyroyleanone]
CC50 [1]: 5.19 µM
CC50 [2]: 7.37 µM
CC50 [3]: 5.87 µM
CC50 [4]: 9.46 µM
CC50 [5]: 5.4 µM
cell death versus growth inhibition (leukemia cell lines [6]): did not appear to induce cell death, but rather growth inhibition
CC50 [7]: 5.87 µM
CC50 [8]: 7.46 µM
CC50 (leukemia cell lines [9]): > 100 µM
growth percent, average for all cell types screened [10]: −18.5%
growth inhibition of each cell line compared to the control ([10]; minimum over all cell lines): at least 72.88%
CC50 [11]: 6.3 µM
